Results published in ChEMBL document CHEMBL3414469, “Targeting DNA methylation with small molecules: what's next?” (J Med Chem, 2015).

Columns and labels:
DNMT3A2/3L complex = DNMT3A2/3L complex (Homo sapiens, UniProt Q9Y6K1); assay: Inhibition of His6-tagged human recombinant DNMT3A/DNMT3L expressed in insect Sf9 cells assessed as reduction in DNA methyltransferase activity using 5'-biotinylated 45-bp unmethylated or hemimethylated oligonucleotide substrates and [3H]-AdoMet by liquid scintillation counting method
DNMT3A2/3L complex, sequence (Q9Y6K1 whole entry, looked up, one chain of several): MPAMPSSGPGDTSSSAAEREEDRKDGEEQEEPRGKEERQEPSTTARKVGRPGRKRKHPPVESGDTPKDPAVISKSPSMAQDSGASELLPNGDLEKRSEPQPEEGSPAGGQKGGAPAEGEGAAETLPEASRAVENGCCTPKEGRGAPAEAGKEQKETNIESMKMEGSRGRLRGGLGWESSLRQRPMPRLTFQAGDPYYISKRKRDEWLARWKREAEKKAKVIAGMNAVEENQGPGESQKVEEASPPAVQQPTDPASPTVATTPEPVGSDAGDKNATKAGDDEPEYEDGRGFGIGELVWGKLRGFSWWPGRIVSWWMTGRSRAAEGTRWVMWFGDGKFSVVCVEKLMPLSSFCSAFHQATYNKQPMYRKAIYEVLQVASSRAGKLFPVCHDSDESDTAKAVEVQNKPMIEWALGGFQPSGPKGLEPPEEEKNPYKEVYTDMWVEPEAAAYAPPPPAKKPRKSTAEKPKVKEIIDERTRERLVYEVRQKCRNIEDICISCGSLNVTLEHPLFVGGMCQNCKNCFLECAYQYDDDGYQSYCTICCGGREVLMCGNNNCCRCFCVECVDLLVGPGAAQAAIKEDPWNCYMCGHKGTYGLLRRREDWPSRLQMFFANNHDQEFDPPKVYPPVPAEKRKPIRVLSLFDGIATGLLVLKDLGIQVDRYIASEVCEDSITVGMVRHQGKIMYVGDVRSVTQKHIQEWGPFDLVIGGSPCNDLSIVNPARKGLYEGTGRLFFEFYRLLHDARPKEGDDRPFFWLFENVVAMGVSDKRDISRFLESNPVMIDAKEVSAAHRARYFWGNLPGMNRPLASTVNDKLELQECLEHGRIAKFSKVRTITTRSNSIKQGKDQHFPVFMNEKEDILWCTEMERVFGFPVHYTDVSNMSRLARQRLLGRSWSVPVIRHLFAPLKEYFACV

[1] = biological target: DNA (cytosine-5)-methyltransferase 3B (Homo sapiens, UniProt Q9UBC3); assay: Inhibition of His6-tagged human recombinant DNMT3b expressed in insect Sf9 cells assessed as reduction in DNA methyltransferase activity using 5'-biotinylated 45-bp unmethylated or hemimethylated oligonucleotide substrates and [3H]-AdoMet by liquid scintillation counting method
[2] = biological target: DNA (cytosine-5)-methyltransferase 1 (Homo sapiens, UniProt P26358); assay: Inhibition of His6-tagged human recombinant DNMT1 expressed in insect Sf9 cells assessed as reduction in DNA methyltransferase activity using 5'-biotinylated 45-bp unmethylated or hemimethylated oligonucleotide substrates and [3H]-AdoMet by liquid scintillation counting method
DNA (cytosine-5)-methyltransferase 1, sequence (P26358 whole entry): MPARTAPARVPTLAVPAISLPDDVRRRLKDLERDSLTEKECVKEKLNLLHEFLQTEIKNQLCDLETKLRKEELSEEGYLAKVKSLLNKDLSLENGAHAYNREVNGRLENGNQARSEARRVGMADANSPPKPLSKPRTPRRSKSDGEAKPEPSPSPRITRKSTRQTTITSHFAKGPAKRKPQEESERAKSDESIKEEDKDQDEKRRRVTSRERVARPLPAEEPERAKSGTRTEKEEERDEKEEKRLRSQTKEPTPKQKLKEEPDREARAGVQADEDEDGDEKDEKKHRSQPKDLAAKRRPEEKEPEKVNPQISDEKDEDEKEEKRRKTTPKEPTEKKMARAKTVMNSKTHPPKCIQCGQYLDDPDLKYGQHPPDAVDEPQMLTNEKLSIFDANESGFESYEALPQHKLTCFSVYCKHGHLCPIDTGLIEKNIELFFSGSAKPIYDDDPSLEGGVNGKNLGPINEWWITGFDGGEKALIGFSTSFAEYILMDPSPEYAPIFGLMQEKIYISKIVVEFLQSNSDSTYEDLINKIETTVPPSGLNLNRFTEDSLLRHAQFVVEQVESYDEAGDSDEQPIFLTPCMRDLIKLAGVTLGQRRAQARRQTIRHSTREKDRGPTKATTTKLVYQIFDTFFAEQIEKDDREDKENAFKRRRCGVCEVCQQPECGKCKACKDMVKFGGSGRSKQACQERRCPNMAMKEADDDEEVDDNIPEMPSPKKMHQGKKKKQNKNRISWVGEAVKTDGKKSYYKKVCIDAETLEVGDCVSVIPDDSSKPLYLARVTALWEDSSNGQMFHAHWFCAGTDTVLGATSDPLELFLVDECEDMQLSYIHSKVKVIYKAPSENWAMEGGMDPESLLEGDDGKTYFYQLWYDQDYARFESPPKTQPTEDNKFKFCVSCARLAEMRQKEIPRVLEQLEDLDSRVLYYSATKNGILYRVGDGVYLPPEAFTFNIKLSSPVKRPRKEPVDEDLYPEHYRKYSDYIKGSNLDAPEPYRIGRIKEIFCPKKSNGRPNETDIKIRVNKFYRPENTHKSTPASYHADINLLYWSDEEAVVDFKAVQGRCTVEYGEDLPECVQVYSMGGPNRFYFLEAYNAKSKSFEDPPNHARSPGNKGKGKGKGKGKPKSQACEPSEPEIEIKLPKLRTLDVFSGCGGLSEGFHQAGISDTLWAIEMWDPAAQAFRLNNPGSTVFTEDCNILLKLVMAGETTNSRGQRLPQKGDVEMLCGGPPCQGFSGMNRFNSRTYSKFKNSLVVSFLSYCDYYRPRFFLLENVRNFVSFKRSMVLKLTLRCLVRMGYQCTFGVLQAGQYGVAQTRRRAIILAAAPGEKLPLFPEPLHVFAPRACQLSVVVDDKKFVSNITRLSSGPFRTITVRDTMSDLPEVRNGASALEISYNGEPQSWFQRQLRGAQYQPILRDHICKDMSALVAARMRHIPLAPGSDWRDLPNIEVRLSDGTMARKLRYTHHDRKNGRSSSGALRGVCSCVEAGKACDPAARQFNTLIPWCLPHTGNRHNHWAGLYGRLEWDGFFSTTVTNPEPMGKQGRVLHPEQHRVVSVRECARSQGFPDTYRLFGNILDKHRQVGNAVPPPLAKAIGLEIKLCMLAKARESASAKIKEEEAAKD

[3] = biological target: DNA (cytosine-5)-methyltransferase 3A (Homo sapiens, UniProt Q9Y6K1); assay: Inhibition of His6-tagged human recombinant DNMT3a expressed in insect Sf9 cells assessed as reduction in DNA methyltransferase activity using 5'-biotinylated 45-bp unmethylated or hemimethylated oligonucleotide substrates and [3H]-AdoMet by liquid scintillation counting method
DNA (cytosine-5)-methyltransferase 3A, sequence (Q9Y6K1 whole entry, looked up): as the sequence (Q9Y6K1 whole entry, looked up, one chain of several) above

[4] = Half life in sc dosed patient with myelodysplastic syndrome; conditions: human, in vivo
[5] = Half life in patient with myelodysplastic syndrome dosed via infusion; format: ADME, organism-based; conditions: human, in vivo, iv

| IC50 (DNMT3A2/3L complex) | IC50 [2] | Structure (SMILES) | further results |
| --- | --- | --- | --- |
| 315 µM |  | O=C(O)[C@H](Cc1c[nH]c2ccccc12)N1C(=O)c2ccccc2C1=O |  |
|  |  | Cc1cc(Nc2ccc(NC(=O)c3ccc(Nc4ccnc5ccccc45)cc3)cc2)nc(N)n1 | IC50 [1]: 7.5 µM |
| 21 µM | 4 µM | CCN(CC)CCNC(=O)c1ccc(NCCCCCCCCCCCCN2C(=O)c3ccccc3C2=O)cc1 |  |
|  | 20 µM | O=C(O)[C@H](Cc1c[nH]c2ccccc12)N1C(=O)C=CC1=O |  |
|  | 1.2 µM | O=[N+]([O-])c1cc(S(=O)(=O)Nc2ccc(O)c3ccccc23)ccc1Cl | IC50 [3]: 38 µM |
|  | 150 µM | O=[N+]([O-])c1ccc(C2=NC[C@H](CN3CCCC3)O2)cc1 |  |
|  |  | Nc1ncn([C@@H]2O[C@H](CO)[C@@H](O)[C@H]2O)c(=O)n1 [AZACITIDINE] | half-life [4]: 41 min |
|  |  | Nc1ncn([C@H]2C[C@H](O)[C@@H](CO)O2)c(=O)n1 [DECITABINE] | half-life [5]: 10 min |
| > 100 µM | 30 µM | O=c1c(-c2ccc(O)cc2)coc2cc(O)cc(O)c12 [GENISTEIN] |  |
|  |  | C[C@@H]1O[C@@H](CC(=O)O)CC2=C1C(=O)c1c(O)cccc1C2=O [NANAFROCIN] | IC50 [1]: 0.5 µM |
| > 300 µM | > 500 µM | CCN(CC)CCNC(=O)c1ccc(N)cc1 [PROCAINAMIDE] |  |

| Structure (SMILES) | IC50 (DNMT3A2/3L complex) | IC50 [2] | further results |
| --- | --- | --- | --- |
| O=C1C(Cl)=C(Cl)C(=O)c2ccccc21 [Dichlon] | 0.5 µM | 1.6 µM |  |
| O=C(O[C@@H]1Cc2c(O)cc(O)cc2O[C@@H]1c1cc(O)c(O)c(O)c1)c1cc(O)c(O)c(O)c1 [EPIGALOCATECHIN GALLATE] |  | 0.5 µM |  |
